Results from patent publication US12048730B2, “Pharmaceutical composition for preventing or treating cancer, containing oligopeptide as active ingredient” (L-BASE CO., LTD., priority 2018, dated 2024).
Entries after “also recorded” stand apart in the source; their conditions may differ.

Assays:
Type in all cases: cell-based
[1] = system: lung cancer cell line (H1975); assay: MTS assay, cancer cell proliferation inhibition, lung cancer cell line; details: H1975, 500 μM oligopeptide, 72 hours, OD 490 nm, vs untreated control (FIG. 1)
Experimental: (§1) To measure the cancer cell proliferation inhibitory effect of the oligopeptides synthesized in Example 1, an MTS (3-(4,5-dimethylthiazol-2-y)-5-(3-carboxymethoxyphenyl)-2-(4-sulfophenyl)-2H-tetrazolium, inner salt) assay for cancer cells was performed. Specifically, each of a lung cancer cell line (H1975), a breast cancer cell line (MDA-MB-231) and a blood cancer cell line (Daudi), which were cultured in 96-well microplates, was treated with 500 μM of the oligopeptides synthesized in Example 1, and incubated in a 37° C. incubator for 72 hours. Each cell culture was treated with an MTS reagent and incubated in a 37° C. incubator for 30 minutes or more, and absorbance (OD) was measured at 490 nm.

[2] = system: breast cancer cell line (MDA-MB-231); assay: MTS assay, cancer cell proliferation inhibition, breast cancer cell line; details: MDA-MB-231, 500 μM oligopeptide, 72 hours, OD 490 nm, vs untreated control (FIG. 2)
Experimental: as §1

[3] = system: blood cancer cell line (Daudi); assay: MTS assay, cancer cell proliferation inhibition, blood cancer cell line; details: 500 μM oligopeptide, 72 hours, OD 490 nm, vs untreated control (FIG. 3)
Experimental: as §1

Sequence | cancer cell proliferation inhibitory activity [1] | cancer cell proliferation inhibitory effect [2] | cancer cell proliferation inhibitory activity [3]
GMLVLTPTRE (pep #8) | excellent cancer cell proliferation inhibitory effects | better cancer cell proliferation inhibitory effect than an untreated control | better cancer cell proliferation inhibitory activity than an untreated control; also recorded: excellent cancer cell proliferation inhibitory activity
WPDTVRQLAL (pep #3) |  | better cancer cell proliferation inhibitory effect than an untreated control; also recorded: excellent cancer cell proliferation inhibitory effects | better cancer cell proliferation inhibitory activity than an untreated control
TSATWPDTVR (pep #2) |  | better cancer cell proliferation inhibitory effect than an untreated control | better cancer cell proliferation inhibitory activity than an untreated control
QTVMTSATWP (pep #6) | excellent cancer cell proliferation inhibitory effects |  | better cancer cell proliferation inhibitory activity than an untreated control
CSKYSYKGLK (pep #4) |  | better cancer cell proliferation inhibitory effect than an untreated control | better cancer cell proliferation inhibitory activity than an untreated control
ATWPDTVRQL (pep #1) |  |  | better cancer cell proliferation inhibitory activity than an untreated control
SICIYGGRNR (pep #7) | excellent cancer cell proliferation inhibitory effects | better cancer cell proliferation inhibitory effect than an untreated control; also recorded: excellent cancer cell proliferation inhibitory effects | better cancer cell proliferation inhibitory activity than an untreated control
AECSKYSYKG (pep #5) |  | better cancer cell proliferation inhibitory effect than an untreated control; also recorded: excellent cancer cell proliferation inhibitory effects | better cancer cell proliferation inhibitory activity than an untreated control; also recorded: excellent cancer cell proliferation inhibitory activity
SREQRNGPGM (pep #9) | excellent cancer cell proliferation inhibitory effects |  | 
